Assay results as given in ChEMBL document CHEMBL1201862, “PubChem BioAssay data set” (2004).
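The compound was tested at five concentrations on cells cultured in 96-well plates, with a 48-hour exposure period. The concentration for 50% growth inhibition is given as GI50.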 The source made the active and inactive calls. No stated cut-off is given here; in the data, active = GI50 up to about 1.1 µM and inactive = higher.

Assays:
Assay in all cases: NCI anticancer screen, dose series, 48 h
ACHN = system: ACHN
COLO 205 = system: COLO 205
HOP-62 = system: HOP-62
HOP-92 = system: HOP-92
Malme-3M = system: Malme-3M
NCI-H226 = system: NCI-H226
NCI-H522 = system: NCI-H522
OVCAR-3 = system: OVCAR-3
OVCAR-8 = system: OVCAR-8
SF-295 = system: SF-295
SF-539 = system: SF-539
SK-MEL-28 = system: SK-MEL-28
SK-MEL-5 = system: SK-MEL-5
MCF7 = system: MCF7
MDA-N = system: MDA-N
T47D = system: T47D
BT-549 = system: BT-549

| SMILES | GI50 (ACHN) | GI50 (COLO 205) | GI50 (HOP-62) | GI50 (HOP-92) | GI50 (Malme-3M) | GI50 (NCI-H226) | GI50 (NCI-H522) | GI50 (OVCAR-3) | GI50 (OVCAR-8) | GI50 (SF-295) | GI50 (SF-539) | GI50 (SK-MEL-28) | GI50 (SK-MEL-5) | GI50 (MCF7) | GI50 (MDA-N) | GI50 (T47D) | GI50 (BT-549) |
| --- | --- | --- | --- | --- | --- | --- | --- | --- | --- | --- | --- | --- | --- | --- | --- | --- | --- |
| CC(=O)Nc1ccc(C(=O)NN2C(=O)C(Cl)C2c2cccc([N+](=O)[O-])c2)cc1 (stereo not drawn) | > 100 µM (inactive) | > 100 µM (inactive) | > 100 µM (inactive) | > 100 µM (inactive) | > 100 µM (inactive) | > 100 µM (inactive) | > 100 µM (inactive) | > 100 µM (inactive) | > 100 µM (inactive) | > 100 µM (inactive) | > 100 µM (inactive) | > 100 µM (inactive) | > 100 µM (inactive) | – | – | – | – |
| CCOC(=O)c1csc(NC(=O)C(C)N2CCCCC2)n1 (stereo not drawn) | > 100 µM (inactive) | > 100 µM (inactive) | > 100 µM (inactive) | > 100 µM (inactive) | > 100 µM (inactive) | – | – | > 100 µM (inactive) | > 100 µM (inactive) | > 100 µM (inactive) | > 100 µM (inactive) | > 100 µM (inactive) | > 100 µM (inactive) | > 100 µM (inactive) | > 100 µM (inactive) | > 100 µM (inactive) | – |
| O=C(C1C(c2ccccc2)N1C(c1ccccc1)c1ccccc1)C1C(c2ccccc2)N1C(c1ccccc1)c1ccccc1 (stereo not drawn) | > 10 µM (inactive) | > 10 µM (inactive) | > 100 µM (inactive) | – | – | – | 5.71 µM (inactive) | – | 29.6 µM (inactive) | 75.7 µM (inactive) | 20 µM (inactive) | 15.7 µM (inactive) | 20.6 µM (inactive) | 5.31 µM (inactive) | 28.9 µM (inactive) | 28.4 µM (inactive) | – |
| N#Cc1nnn(-c2ccc(Br)cc2)c1O | > 100 µM (inactive) | > 100 µM (inactive) | > 100 µM (inactive) | – | > 100 µM (inactive) | > 100 µM (inactive) | > 100 µM (inactive) | > 100 µM (inactive) | > 100 µM (inactive) | > 100 µM (inactive) | > 100 µM (inactive) | > 100 µM (inactive) | – | > 100 µM (inactive) | 46.9 µM (inactive) | > 100 µM (inactive) | > 100 µM (inactive) |
| O=c1c2ccccc2ncn1COCc1ccccc1 | > 100 µM (inactive) | > 100 µM (inactive) | – | > 100 µM (inactive) | – | > 100 µM (inactive) | – | > 100 µM (inactive) | > 100 µM (inactive) | > 100 µM (inactive) | > 100 µM (inactive) | > 100 µM (inactive) | > 100 µM (inactive) | > 100 µM (inactive) | – | – | – |
| COC(=O)[C@H](Cc1ccccc1)NP(=O)(O)OCC1C=CC(n2cc(C)c(=O)[nH]c2=O)O1 (stereo partly drawn) | 26.3 µM (inactive) | > 100 µM (inactive) | > 100 µM (inactive) | > 100 µM (inactive) | > 100 µM (inactive) | > 100 µM (inactive) | > 100 µM (inactive) | > 100 µM (inactive) | > 100 µM (inactive) | > 100 µM (inactive) | – | – | > 100 µM (inactive) | > 100 µM (inactive) | – | > 100 µM (inactive) | > 100 µM (inactive) |
| Cc1ccc2c(O)cc(-c3sccc3C)nc2n1 | 1.1 µM (active) | 0.37 µM (active) | 2.1 µM (inactive) | > 36.8 µM (inactive) | 0.463 µM (active) | 1.38 µM (inactive) | 0.296 µM (active) | 0.653 µM (active) | 1.99 µM (inactive) | 0.497 µM (active) | 0.474 µM (active) | – | 0.266 µM (active) | 0.315 µM (active) | 0.106 µM (active) | – | 4.27 µM (inactive) |
| C=C[C@@](C)(/C=C/c1ccc(O)cc1)CCC=C(C)C [BAKUCHIOL] | 10.6 µM (inactive) | 17.7 µM (inactive) | 19.1 µM (inactive) | 16.5 µM (inactive) | – | 19 µM (inactive) | 17.1 µM (inactive) | 18.3 µM (inactive) | 16.9 µM (inactive) | 20.2 µM (inactive) | – | 20 µM (inactive) | 16 µM (inactive) | 19.5 µM (inactive) | 17.3 µM (inactive) | 14 µM (inactive) | – |
| C[C@]12CC[C@H](O)CC1=CC[C@@H]1[C@@H]2CC[C@]2(C)C(=O)CC[C@@H]12 [PRASTERONE] | > 100 µM (inactive) | > 100 µM (inactive) | – | – | > 100 µM (inactive) | > 100 µM (inactive) | > 100 µM (inactive) | > 100 µM (inactive) | > 100 µM (inactive) | > 100 µM (inactive) | > 100 µM (inactive) | > 100 µM (inactive) | > 100 µM (inactive) | > 100 µM (inactive) | > 100 µM (inactive) | > 100 µM (inactive) | > 100 µM (inactive) |
